From ChEMBL document CHEMBL5038616, “Synthesis and biological evaluation of N, N-dialkylcarboxy coumarin-NO donor conjugates as potential anticancer agents” (Bioorg Med Chem Lett, 2021)
Active and inactive are the calls of the source. The calls are words filed in the database; no cut-off is given here.

What was measured:
WiDr = experiment: Antiproliferative activity against human WiDr cells assessed as inhibition of cell proliferation by MTT assay; assay type: functional, cell-based
MDA-MB-231 [1] = experiment: Antiproliferative activity against human MDA-MB-231 cells assessed as inhibition of cell proliferation by MTT assay; assay type: functional, cell-based
4T1 = experiment: Antiproliferative activity against mouse 4T1 cells assessed as inhibition of cell proliferation by MTT assay; assay type: functional, cell-based
[2] = Cytotoxicity against human MCF-10A cells assessed as inhibition of cell proliferation by MTT assay; assay type: toxicity, cell-based
[3] = Cytotoxicity against human HDFa cells assessed as inhibition of cell proliferation by MTT assay; assay type: toxicity, cell-based
MDA-MB-231 [4] = experiment: Induction of NO production in human MDA-MB-231 cells assessed as nitrite level at 100 uM by Griess reagent based assay; assay type: functional, cell-based
MDA-MB-231 [5] = experiment: Induction of NO production in human MDA-MB-231 cells assessed as increase in NO fluorescence at 50 nM treated with DAF-DM diacetate for 30 mins and measured after 2 hrs incubation by confocal microscopic analysis; assay type: functional, cell-based
[6] = Toxicity in […] mouse xenografted with human MDA-MB-231 cells assessed as body weight loss at 20 mg/kg, ip dosed once daily for 14 days relative to control; assay type: organism-based; details: in vivo, 336 h, time 14 day
MDA-MB-231 [7] = experiment: Induction of apoptosis in human MDA-MB-231 cells assessed as necrotic cells at 50 nM by annexin V-FITC and PI staining based flow cytometry analysis (reference value: 2.88 %); assay type: functional
MDA-MB-231 [8] = experiment: Induction of apoptosis in human MDA-MB-231 cells assessed as early apoptotic cells at 25 nM by annexin V-FITC and PI staining based flow cytometry method (reference value: 1.92 %); assay type: functional
MDA-MB-231 [9] = experiment: Induction of apoptosis in human MDA-MB-231 cells assessed as late apoptotic cells at 25 nM by annexin V-FITC and PI staining based flow cytometry method (reference value: 2.02 %); assay type: functional
MDA-MB-231 [10] = experiment: Induction of apoptosis in human MDA-MB-231 cells assessed as necrotic cells at 10 nM by annexin V-FITC and PI staining based flow cytometry method(reference value: 2.88 %); assay type: functional
MDA-MB-231 [11] = experiment: Induction of apoptosis in human MDA-MB-231 cells assessed as necrotic cells at 25 nM by annexin V-FITC and PI staining based flow cytometry method (reference value: 2.88 %); assay type: functional
MDA-MB-231 [12] = experiment: Induction of apoptosis in human MDA-MB-231 cells assessed as viable cells at 25 nM by annexin V-FITC and PI staining based flow cytometry method (reference value: 93.2 %); assay type: functional; details: read-out: Activity
MDA-MB-231 [13] = experiment: Induction of apoptosis in human MDA-MB-231 cells assessed as early apoptotic cells at 10 nM by annexin V-FITC and PI staining based flow cytometry method (reference value: 1.92 %); assay type: functional
MDA-MB-231 [14] = experiment: Induction of apoptosis in human MDA-MB-231 cells assessed as viable cells at 50 nM by annexin V-FITC and PI staining based flow cytometry method (reference value: 93.2 %); assay type: functional; details: read-out: Activity
MDA-MB-231 [15] = experiment: Cell cycle arrest in human MDA-MB-231 cells assessed as accumulation of cells at G0/G1 phase at 20 nM by PI staining based flow cytometry method; assay type: functional
MDA-MB-231 [16] = experiment: Induction of apoptosis in human MDA-MB-231 cells assessed as late apoptotic cells at 10 nM by annexin V-FITC and PI staining based flow cytometry method (reference value: 2.02 %); assay type: functional
MDA-MB-231 [17] = experiment: Induction of apoptosis in human MDA-MB-231 cells assessed as early apoptotic cells at 50 nM by annexin V-FITC and PI staining based flow cytometry method (reference value: 1.92 %); assay type: functional
MDA-MB-231 [18] = experiment: Antitumor activity against human MDA-MB-231 cells xenografted in NOD-SCID mouse assessed as reduction in tumor mass at 20 mg/kg, ip measured for every 2 to 3 days; assay type: functional; parameters: scale not given: the % may be the effect or the level left; details: time 2-3 day
MDA-MB-231 [19] = experiment: Inhibition of colony formation in human MDA-MB-231 cells assessed as reduction in colony formation at 1 to 3 nM relative to control; assay type: functional, cell-based; details: dose 1-3 nM
MDA-MB-231 [20] = experiment: Antitumor activity against human MDA-MB-231 cells xenografted in NOD-SCID mouse assessed as reduction in tumor volume at 20 mg/kg, ip measured for every 2 to 3 days; assay type: functional; parameters: scale not given: the % may be the effect or the level left; details: time 2-3 day
MDA-MB-231 [21] = experiment: Induction of apoptosis in human MDA-MB-231 cells assessed as viable cells at 10 nM by annexin V-FITC and PI staining based flow cytometry method (reference value: 93.2 %); assay type: functional; details: read-out: Activity
MDA-MB-231 [22] = experiment: Induction of apoptosis in human MDA-MB-231 cells assessed as late apoptotic cells at 50 nM by annexin V-FITC and PI staining based flow cytometry method (reference value: 2.02 %); assay type: functional

Row | Structure (SMILES) | IC50 (MDA-MB-231 [1]) [µM] | IC50 (4T1) [µM] | IC50 (WiDr) [µM] | IC50 [2] [µM] | IC50 [3] [µM] | Activity (MDA-MB-231 [4]) | Activity (MDA-MB-231 [5]) | also measured
1 | O=C(OCCO)c1cc2ccc(N(Cc3ccccc3)Cc3ccccc3)cc2oc1=O | > 100 | > 100 | > 100 | > 100 | – | – | – | –
2 | O=C(O)c1cc2ccc(N(Cc3ccccc3)Cc3ccccc3)cc2oc1=O | > 100 | > 100 | > 100 | > 100 | – | – | – | –
3 | O=C(OCCOc1no[n+]([O-])c1S(=O)(=O)c1ccccc1)c1cc2ccc(N(Cc3ccccc3)Cc3ccccc3)cc2oc1=O | 0.02 | 0.13 | 0.03 | 34 | 1.48 | – | Active | Activity [6]: Non-Toxic; Activity (MDA-MB-231 [7]): 1.47%; Activity (MDA-MB-231 [8]): 3.04%; Activity (MDA-MB-231 [9]): 19.4%; Activity (MDA-MB-231 [10]): 1.36%; Activity (MDA-MB-231 [11]): 1.65%; viability at 0.025 µM (MDA-MB-231 [12]): 75.9%; Activity (MDA-MB-231 [13]): 2.04%; viability at 0.05 µM (MDA-MB-231 [14]): 60.8%; Activity (MDA-MB-231 [15]): Active; IC50 (MDA-MB-231 [4]): Active; Activity (MDA-MB-231 [16]): 5.7%; Activity (MDA-MB-231 [17]): 4.8%; Activity (MDA-MB-231 [18]): 35%; Activity (MDA-MB-231 [19]): Dose-Dependent Effect; Activity (MDA-MB-231 [20]): 48%; viability at 0.01 µM (MDA-MB-231 [21]): 90.9%; Activity (MDA-MB-231 [22]): 32.9%
4 | O=C(c1cc2ccc(N(Cc3ccccc3)Cc3ccccc3)cc2oc1=O)N1CCN(CCOc2no[n+]([O-])c2S(=O)(=O)c2ccccc2)CC1 | 0.46 | 0.96 | 10 | 8.6 | 5.31 | inactive | Active | –

More lines, main results first:

Row | IC50 (MDA-MB-231 [1]) [µM] | IC50 (4T1) [µM] | Structure (SMILES) | IC50 (WiDr) [µM] | IC50 [2] [µM] | IC50 [3] [µM] | Activity (MDA-MB-231 [4]) | Activity (MDA-MB-231 [5]) | also measured
5 | > 100 | > 100 | CCN(CC)c1ccc2cc(C(=O)OCCO)c(=O)oc2c1 | > 100 | > 100 | – | – | – | –
6 | 3.6 | 1.3 | CCN(CC)c1ccc2cc(C(=O)OCCOc3no[n+]([O-])c3S(=O)(=O)c3ccccc3)c(=O)oc2c1 | 2.2 | – | 1.48 | Active | Active | –
